Marks after values point to notes of the source that are not given here.
What was measured:
PPO from purslane = system: PPO from purslane; design: method as in doi:10.1590/1678-457x.03216; settings: substrate catechol; ref [21]; cited from earlier work
[1] = system: PPO from broccoli florets; design: method as in doi:10.1016/j.foodchem.2007.05.012; settings: substrate 4-methylcatechol; ref [61]; cited from earlier work
[2] = system: polyphenol oxidase (PPO) from sickleweed; test: Inhibition of PPO purified from sickleweed, 4-methylcatechol substrate; format: biochemical, Falcaria vulgaris Bernh.; settings: substrate 4-methylcatechol; for Inhibition type / Ki: Lineweaver-Burk plots; for IC50: optimum conditions
Method: (§1) PPO activity was determined by measuring the increase in absorbance at 496 nm for 4-methylcatechol and 500 nm for catechol and DHPPA with a UV–Vis spectrophotometer. PPO activity was detected by the increment in absorbance in 1 min by adding 100 μL of the substrate (100 mM), 100 μL of 3-Methyl-2-benzothiazolinone hydrazone (MBTH, 10 mM), 20 μL of Dimethylformamide (DMF), 680 μL of 50 mM pH 5.0 acetate buffer, and finally 100 μL of the enzyme. The blank contains all solutions, excluding the enzyme. The enzyme unit is defined as the amount of the enzyme producing an absorbance increase of 0.001 per minute in 1 mL of the reaction mixture. The specific activity of PPO was defined as units per mg of protein [64].
The common inhibitors of PPO were preferred to study the inhibitory effects on PPO activity. For the 4-methylcatechol substrate, sodium metabisulphite (0.005–0.1 mM), citric acid (5–60 mM), and ascorbic acid (0.005–0.04 mM) inhibitors were utilized to determine enzyme activities under optimum conditions. The half maximal inhibitory concentration (IC50), which halves the enzyme activity, was calculated using the graph of percentage residual activity (%) versus inhibitor concentration (enzyme activity in the absence of inhibitor was accepted as one hundred percent). Then, enzyme activities were studied at five substrate concentrations and three inhibitor concentrations under optimum conditions. The Lineweaver-Burk graphs were drawn by calculating 1/V and 1/[S] values with the obtained data. From these graphs, inhibition constant (Ki) values were calculated for each inhibitor, and the inhibition type was determined.

PPO from Sarali plum [3] = system: PPO from Sarali plum; design: method as in doi:10.1007/s11694-024-02663-y; settings: substance as substrate; ref [39]; cited from earlier work
[4] = system: PPO from persimmon fruits; design: method as in doi:10.1016/j.foodchem.2003.07.022; settings: substance as substrate, ref [47], cited from earlier work; for Vmax: asterisked values
Medlar PPO = system: Medlar PPO; design: method as in doi:10.1016/S0308-8146(01)00359-4; settings: substance as substrate, ref [51], cited from earlier work; for Vmax: asterisked values
[5] = system: PPO from Laccaria laccata (LacPPO); design: method as in doi:10.1111/jfbc.12605; settings: substance as substrate; ref [43]; cited from earlier work
PPO from butter lettuce = system: PPO from butter lettuce; design: method as in doi:10.1016/j.foodchem.2007.07.068; settings: substance as substrate; ref [38]; cited from earlier work
[6] = system: polyphenol oxidase (PPO) from sickleweed; test: Substrate kinetics of sickleweed PPO (Lineweaver-Burk); format: biochemical, Falcaria vulgaris Bernh.; settings: substance as substrate; optimum pH and temperature
Method: as §1
To determine substrate specificity, catechol (0.2–20 mM), 4-methylcatechol (0.2–20 mM), and DHPPA (0.2–20 mM) concentrations were studied. Enzyme activity was carried out at optimum temperature and pH. The kinetic data were analyzed in terms of 1/activity (1/V) and 1/substrate concentration ([S]). The Michaelis-Menten constant (Km) and the maximum velocity (Vmax) were computed by plotting the Lineweaver-Burk graph. The catalytic efficiency ratio (Vmax/Km) was used as a criterion to evaluate substrate specificity.

PPO from Chinese parsley = system: PPO from Chinese parsley; design: method as in PMID 30263491; settings: substance as substrate; ref [50]; cited from earlier work
PPO from tea leaf = system: PPO from tea leaf; design: method as in doi:10.1007/s11694-019-00264-8; settings: substrate catechol; ref [40]; cited from earlier work
PPO from Sarali plum [7] = system: PPO from Sarali plum; design: method as in doi:10.1007/s11694-024-02663-y; settings: substrate 4-methylcatechol; ref [39]; cited from earlier work

Structure (SMILES) | Inhibition type (PPO from purslane) | Ki (PPO from purslane) | Inhibition type [1] | Ki [1] | Inhibition type [2] | Ki [2] | IC50 [2] | Km (PPO from Sarali plum [3]) | Vmax (PPO from Sarali plum [3]) | Vmax [4] | Km [4] | Vmax (Medlar PPO) | Km (Medlar PPO) | Km [5] | Km (PPO from butter lettuce) | Vmax (PPO from butter lettuce) | Km [6] | Vmax [6] | Km (PPO from Chinese parsley) | Vmax (PPO from Chinese parsley) | also measured
O=C(O)CC(O)(CC(=O)O)C(=O)O [Citric acid, citric acid] | Uncompetitive | 4470 µM | Noncompetitive | 74 µM | Competitive | 8370 µM | 32000 µM |  |  |  |  |  |  |  |  |  |  |  |  |  | Ki ([2]; listed as citric acid): 8730 µM
Oc1ccccc1O [Catechol, catechol] |  |  |  |  |  |  |  | 1.16 ± 0.12 mM | 914.14 ± 83.45 EU·mL^−1·min^−1 | 55.2 * μM/min | 12.4 mM | 88.0 * μM/min | 5.7 mM | 0.25 mM | 3.2 ± 0.01 mM | 4081 ± 8 EU·mL^−1·min^−1 | 5 mM | 10,000 EU·mL^−1·min^−1 | 31 mM | 2000 EU·mL^−1·min^−1 | 
O=C(O)CCc1ccc(O)c(O)c1 [DHPPA, 3,4-Dihydroxyphenylpropionic acid] |  |  |  |  |  |  |  |  |  | 17.2 * μM/min | 12.8 mM | 7.2 * μM/min | 1.9 mM |  |  |  | 11.4 mM | 14,285.71 EU·mL^−1·min^−1 |  |  | 
O=S(O)S(=O)(=O)O [Sodium metabisulfite, sodium metabisulfite] |  |  |  |  | Noncompetitive | 23.7 µM | 27 µM |  |  |  |  |  |  |  |  |  |  |  |  |  | IC50 (PPO from tea leaf): 21.7 µM; Inhibition type (PPO from tea leaf): Noncompetitive; Ki (PPO from tea leaf): 19.3 µM
Cc1ccc(O)c(O)c1 [4-Methylcatechol, 4-methylcatechol] |  |  |  |  |  |  |  | 4.75 ± 0.66 mM | 2333.33 ± 288.68 EU·mL^−1·min^−1 | 49.5 * μM/min | 14.6 mM | 130 * μM/min | 7.5 mM | 0.4 mM | 1 ± 0.09 mM | 5405 ± 4 EU·mL^−1·min^−1 | 2 mM | 5000 EU·mL^−1·min^−1 | 37.4 mM | 1428.57 EU·mL^−1·min^−1 | 
O=C1O[C@H]([C@@H](O)CO)C(O)=C1O [Ascorbic acid, ascorbic acid] | Noncompetitive | 360 µM | Noncompetitive | 88 µM | Competitive | 10.1 µM | 26 µM |  |  |  |  |  |  |  |  |  |  |  |  |  | IC50 (PPO from Sarali plum [7]): 38 ± 1 µM; Inhibition type (PPO from Sarali plum [7]): Competitive; Ki (PPO from Sarali plum [7]): 9.5 µM; IC50 (PPO from tea leaf): 69.3 µM; Inhibition type (PPO from tea leaf): Competitive; Ki (PPO from tea leaf): 32.7 µM
